The record followed here is ChEMBL document CHEMBL1221203, “Modern synthetic efforts toward biologically active terpenes” (Nat Chem Biol, 2007).

pEC50: −log10 of the molar value.

For the assay, the system named is Human immunodeficiency virus. In words: Antiviral activity against HIV replication in human H9 cells. To be noted: Human immunodeficiency virus 1, H9. Format: functional, organism-based.

In general, pEC50 refers to −log10 of the EC50, conventionally taken in molar units. A lower pEC50 goes with a large EC50. With `C[C@]12CCC[C@]3(C(=O)OC1)[C@@H]2CC[C@@]12C[C@@H](CC[C@H]13)[C@](C)(O)C2` [NEOTRIPTERIFORDIN], the negative logarithm of the EC50 (pEC50) is 7.60.
